In patent publication US12324818B2, “Generation of alveolar epithelial type 1 (AT1) cells” (TRUSTEES OF BOSTON UNIVERSITY, priority 2022, dated 2025):

Columns and labels:
Assay type in all cases: cell-based, human
iAT2s [1] = test: AGERtdTomato reporter induction in BU3 NGAT iAT2s (flow cytometry, live imaging); conditions: for effect on AGERtdTomato percentage and MFI: media containing L
Excerpt: FIG. 5A) BU3 NGAT iAT2s were passaged as usual into 3D Matrigel with CK+DCI+RI medium for 3 days. Medium was then kept the same or switched to LATS inhibitor-based media. CK DCI+L, DCI, or L DCI. (C=Chir, K=rhKGF, L=LATS-IN-1; “DCI” as defined in FIG. 2). FIG. 5B) Representative live fluorescence microscopy of iAT2s (BU3 NGAT clone) at 9 days after changing to the indicated medium, either without (FIG. 5B) or with (FIG. 5C) YAP5SA transduction (Scale bars=500 um in B; 50 um in FIG. 5C). FIG. 5D) Representative flow cytometry plots of NKX2-1GFP and AGERtdTomato 9 days post after changing to cach indicate medium. FIG. 5E) Cell counts and flow cytometry quantification of AGER tdTomato+ percentage and Mean Fluorescence Intensity (MFI) 9 days post medium change. One way ANOVA, N=3 per condition. FIG. 5F) Gene expression of AT1 and AT2 markers by whole well RT-qPCR. (1 way ANOVA, N=3 per condition). FIG. 5G) Whole mount immunofluorescence microscopy of BU3 NGAT organoids in L+DCI. Scale bar=50 um. FIG. 5H) Primary adult human AT2 cells (1° AT2s) were cultured as described 5 and 7 days post plating, medium was changed to published, human-serum containing Alveolar Differentiation Media (ADM) or L+DCI. Whole well RT-qPCR of selected genes 7 days post medium change. 1 way ANOVA, N=3 per condition. FIG. 5I) Experimental schematic: BU3 NGAT iAT1s were grown in L+DCI for 10 days, sorted on AGERtdTomato, and then plated in 3D Matrigel in either L+DCI or CK+DCI. Outgrowths of sorted cells were analyzed after an additional 9 days. FIG. 5J) Representative flow cytometry plots of AGERtdTomato+ outgrowth from (FIG. 5I). FIG. 5K) Quantification of indicated fluorescence (FACS), cell counts, or transcript expression (FIG. 5LL; whole well RT-qPCR) of cells from (FIG. 5I). Control sorted iAT1s in L are freshly sorted AGERtdTomato+ cells after 9 days in L+DCI. (N=3 per condition; K=Student's t test; L=1 way ANOVA). *p<0.05, **p<0.01, ***p<0.001, and […] for all panels.
(§1) iPSCs were first differentiated into iAT2s and passaged as above in 3D cultures in iAT2 medium (CK+DCI) supplemented for the first 3 days after passaging with 10 uM Y-27632 (Tocris). To generate iAT1s, 3 days after passaging iAT2s in 3D, the medium was replaced with “L+DCI”, consisting of [10 uM LATS-IN-1 (“L”; MedChemExpress Cat. No.: HY-138489), 50 nM dexamethasone (“D”; Sigma-Aldrich), 0.1 mM 8-bromoadenosine 3′,5′cyclic monophosphate sodium salt (Sigma-Aldrich; “C”), and 0.1 mM 3-isobutyl-1-methylxanthine (IBMX; Sigma-Aldrich; “I”)]. Cells were cultured up to 16 days in L+DCI in 3D while monitoring AGERtdTomatoexpression as detailed in the text.
0.05% trypsin was used to generate single cell suspensions which were resuspended in sort buffer [HBSS (ThermoFisher) with 2% FBS, 10 uM Y-27632 (Tocris)] with Live/dead stain [Calcein blue (Life technologies) or DRAQ7 (Abcam)]. Cells were sorted based on reporter expression: NKX2-1GFP and AGERtdTomatofor BU3 NGAT, or SFTPCtdTomatofor SPC2B2, as indicated in the text. Cell sorting was performed on a Moflo Astrios EQ (Beckman Coulter) and flow cytometry analysis was performed on an LSRII SORP (BD Biosciences) at the Boston University Flow Cytometry Core Facility. For Edu assays, the Click-iT Plus EdU Alexa Fluor 647 Flow Cytometry Assay Kit (Thermo Fisher Scientific) was used with EdU added 24 hours before cell isolation, and cells fixed in 4% paraformaldehyde (PFA) were analyzed on a Stratedigm (S1000EXI) cytometer with post-processing using Flow Jo software (BD Biosciences). For all other analyses, live non-fixed cells were sorted or analyzed as indicated in the text.

iAT2s [2] = test: Withdrawal of Chir or KGF in YAP5SA-transduced BU3 NGAT iAT2s; conditions: YAP5SA differentiation model
Excerpt: FIG. 13A) BU3 NGAT iAT2s were passaged into 3D Matrigel in CK+DCI for 3 days, and then media was switched to media containing LATS-IN-1 and either Chir or KGF and grown for a further 11 days. Representative flow cytometry of NKX2-1GFPand AGERtdTomato. FIG. 13B) Quantification of AGERtdTomatocompared to CK DCI+L and DCI+L quantification in FIGS. 5A-5L. (N=3 per condition, 1 way ANOVA). FIG. 13C) BU3 NGAT iAT2s were transduced with either WT YAP or YAP5SA lentivirus in suspension with polybrene for 4 hours and then replated into 3D Matrigel in CK DCI. After 5 days, media was changed to withdraw one or both growth factors from the media. Cells were analyzed 11 days post media change. FIG. 13D) Cell counts of WT YAP and YAP5SA transduced cells in different medias (2 way ANOVA). First series is CK+DCI, second series is C+DCI, third series is K+DCI, fourth series is DCI. FIG. 13E) Representative flow cytometry of NKX2-1GFP and AGERtdTomato. FIG. 13F) Quantification of AGERtdTomatopercentage and Mean Fluorescence Intensity following YAP5SA transduction. (2 way ANOVA). First series is CK+DCI, second series is C+DCI, third series is K+DCI, fourth series is DCI. FIGS. 13G-13H) Gene expression of AT1 markers, YAP downstream targets, and AT2 markers by whole well RT-qPCR. (N=3, 2 way ANOVA). First series is CK+DCI, second series is C+DCI, third series is K+DCI, fourth series is DCI. […]

iAT2s [3] = test: Whole well RT-qPCR of AT1/AT2 markers in iAT2s in LATS inhibitor media
Procedure: as §1
For RT-qPCR, whole well or sorted cells were collected and stored in Qiazol (Qiagen, 79306) prior to RNA isolation using RNeasy Plus Mini Kit according to the manufacturer's protocol (Qiagen, 74104), cDNA was then synthesized using MultiScribe™ Reverse Transcriptase (ThermoFisher 4311235). A QuantStudio instrument (Applied Biosciences) and predesigned Taqman probes were used and run in a 384-well format for 40 cycles. Relative expression was normalized to an 18S control and fold change over control cells was calculated using 2-ΔΔCt. Where indicated in the text, RNA extracts from adult primary human distal lung tissue explants, the kind gift of Barry Stripp (Cedars Sinai, Los Angeles) were employed as RT-qPCR controls. RNA was isolated via RNeasy Plus Mini Kit following manufacturer's protocol.

**Q.** Which results are given for Cc1c[nH]c(-c2cnc(NCCNc3ccc(C#N)cn3)nc2-c2ccc(Cl)cc2Cl)n1 [Chir, CHIR99021]?
**A.** effect on AGERtdTomato percentage and MFI (iAT2s [1]): significantly inhibitory; effect on AGERtdTomato and AT1 markers by bulk RT-qPCR (iAT2s [2]): inhibitory effects

**Q.** What does the source list for O=C(N=c1sccn1Cc1ccccc1)c1c[nH]c2ncccc12 [LATS-IN-1, N-(3-benzylthiazol-2(3H)-ylidene)-1H-pyrrolo[2,3-b]pyridine-3-carboxamide]?
**A.** AGERtdTomato induction, % of the NKX2-1GFP+ cells (iAT2s [1]; BU3 NGAT iAT2s in L+DCI, increasing over the following 2 weeks): 84.97±1.23%; time to detectable AGERtdTomato induction in the NKX2-1+ population (iAT2s [1]; L supplementation of iAT2s): ≤ 72 h; time to morphologic changes resembling YAP5SA-transduced cells (iAT2s [1]; L supplementation of iAT2s): ≤ 48 hours; iAT2s in which the AT1 program is driven (iAT2s [1]; complete serum free defined media containing LATS inhibitor): up to 97%; dose yielding greatest frequency and brightness (MFI) of NKX2-1GFP/AGERtdTomato+ cells (iAT2s [1]; dose response testing, medium replaced day 3 after passaging, 2 weeks post passage): 10 µM; NKX2-1 expression (iAT2s [3]; iAT2 media vs medias containing LATS-IN-1): unchanged; SFTPC expression (iAT2s [3]; medias containing LATS-IN-1): decreased; AGER, CAV1, PDPN, and CLIC5 expression (iAT2s [3]; whole well RT-qPCR, wells containing the LATS inhibitor): significantly upregulated

B1: keratinocyte growth factor (KGF) protein (protein, UniProt P21781 32-194, looked up)
Fibroblast growth factor 7: CNDMTPEQMATNVNCSSPERHTRSYDYMEGGDIRVRRLFCRTQWYLRIDKRGKVKGTQEMKNNYNIMEIRTVAVGIVAIKGVESEFYLAMNKEGKLYAKKECNEDCNFKELILENHYNTYASAKWTHNGGEMFVALNQKGIPVRGKKTKKEQKTAHFLPMAIT
notes: recombinant human keratinocyte growth factor
**Q.** How did the “effect on AGERtdTomato percentage and MFI” value (iAT2s [1]) turn out when B1 was run?
**A.** The value was “significantly inhibitory”.

**Q.** And the “effect on AGERtdTomato and AT1 markers by bulk RT-qPCR” value (iAT2s [2])?
**A.** The value was “inhibitory effects”.
